Measured values taken from PubChem BioAssay AID1259407 (Chemical Carcinogenesis Research Information System (CCRIS), 2018).
Calls of active or inactive are those of the source. The rule behind the calls is not given here.

Test system: CCRIS mutagenicity, Ames/micronucleus/aberration tests
Assay: CCRIS mutagenicity studies

Measured: mutagenic call

C=CC(=O)NCO
inactive: Test System: AMES SALMONELLA TYPHIMURIUM, Strain/Indicator: TA97, Metabolic Activation: HAMSTER, LIVER, S-9, AROCLOR 1254 (10%), Method: PREINCUBATION inactive; negative | Test System: AMES SALMONELLA TYPHIMURIUM, Strain/Indicator: TA97, Metabolic Activation: HAMSTER, LIVER, S-9, AROCLOR 1254 (10 OR 30%), Method: PREINCUBATION inactive; negative | Test System: AMES SALMONELLA TYPHIMURIUM, Strain/Indicator: TA97, Metabolic Activation: HAMSTER, LIVER, S-9, AROCLOR 1254 (30%), Method: PREINCUBATION inactive; negative | Test System: AMES SALMONELLA TYPHIMURIUM, Strain/Indicator: TA97, Metabolic Activation: NONE, Method: PREINCUBATION inactive; negative | Test System: AMES SALMONELLA TYPHIMURIUM, Strain/Indicator: TA97, Metabolic Activation: RAT, LIVER, S-9, AROCLOR 1254 (10% OR 30%), Method: PREINCUBATION inactive; negative | Test System: AMES SALMONELLA TYPHIMURIUM, Strain/Indicator: TA97, Metabolic Activation: RAT, LIVER, S-9, AROCLOR 1254 (10 OR 30%), Method: PREINCUBATION inactive; negative | Test System: AMES SALMONELLA TYPHIMURIUM, Strain/Indicator: TA98, Metabolic Activation: HAMSTER, LIVER, S-9, AROCLOR 1254 (10% OR 30%), Method: PREINCUBATION inactive; negative | Test System: AMES SALMONELLA TYPHIMURIUM, Strain/Indicator: TA98, Metabolic Activation: HAMSTER, LIVER, S-9, AROCLOR 1254 (10 OR 30%), Method: PREINCUBATION inactive; negative | Test System: AMES SALMONELLA TYPHIMURIUM, Strain/Indicator: TA98, Metabolic Activation: NONE, Method: PREINCUBATION inactive; negative | Test System: AMES SALMONELLA TYPHIMURIUM, Strain/Indicator: TA98, Metabolic Activation: RAT, LIVER, S-9, AROCLOR 1254 (10% OR 30%), Method: PREINCUBATION inactive; negative | Test System: AMES SALMONELLA TYPHIMURIUM, Strain/Indicator: TA98, Metabolic Activation: RAT, LIVER, S-9, AROCLOR 1254 (10 OR 30%), Method: PREINCUBATION inactive; negative | Test System: AMES SALMONELLA TYPHIMURIUM, Strain/Indicator: TA98, Metabolic Activation: RAT, LIVER, S-9, PHENOBARBITAL AND BETA-NAPHTHOFLAVONE, Method: PREINCUBATION inactive; negative | Test System: AMES SALMONELLA TYPHIMURIUM, Strain/Indicator: TA100, Metabolic Activation: HAMSTER, LIVER, S-9, AROCLOR 1254 (10% OR 30%), Method: PREINCUBATION inactive; negative | Test System: AMES SALMONELLA TYPHIMURIUM, Strain/Indicator: TA100, Metabolic Activation: HAMSTER, LIVER, S-9, AROCLOR 1254 (10 OR 30%), Method: PREINCUBATION inactive; negative | Test System: AMES SALMONELLA TYPHIMURIUM, Strain/Indicator: TA100, Metabolic Activation: NONE, Method: PREINCUBATION inactive; negative | Test System: AMES SALMONELLA TYPHIMURIUM, Strain/Indicator: TA100, Metabolic Activation: RAT, LIVER, S-9, AROCLOR 1254 (10% OR 30%), Method: PREINCUBATION inactive; negative | Test System: AMES SALMONELLA TYPHIMURIUM, Strain/Indicator: TA100, Metabolic Activation: RAT, LIVER, S-9, AROCLOR 1254 (10 OR 30%), Method: PREINCUBATION inactive; negative | Test System: AMES SALMONELLA TYPHIMURIUM, Strain/Indicator: TA100, Metabolic Activation: RAT, LIVER, S-9, PHENOBARBITAL AND BETA-NAPHTHOFLAVONE, Method: PREINCUBATION inactive; negative | Test System: AMES SALMONELLA TYPHIMURIUM, Strain/Indicator: TA102, Metabolic Activation: NONE, Method: PREINCUBATION inactive; negative | Test System: AMES SALMONELLA TYPHIMURIUM, Strain/Indicator: TA102, Metabolic Activation: RAT, LIVER, S-9, PHENOBARBITAL AND BETA-NAPHTHOFLAVONE, Method: PREINCUBATION inactive; negative | Test System: AMES SALMONELLA TYPHIMURIUM, Strain/Indicator: TA104, Metabolic Activation: NONE, Method: PREINCUBATION inactive; negative | Test System: AMES SALMONELLA TYPHIMURIUM, Strain/Indicator: TA104, Metabolic Activation: RAT, LIVER, S-9, PHENOBARBITAL AND BETA-NAPHTHOFLAVONE, Method: PREINCUBATION inactive; negative | Test System: AMES SALMONELLA TYPHIMURIUM, Strain/Indicator: TA1535, Metabolic Activation: HAMSTER, LIVER, S-9, AROCLOR 1254 (10% OR 30%), Method: PREINCUBATION inactive; negative | Test System: AMES SALMONELLA TYPHIMURIUM, Strain/Indicator: TA1535, Metabolic Activation: HAMSTER, LIVER, S-9, AROCLOR 1254 (10 OR 30%), Method: PREINCUBATION inactive; negative | Test System: AMES SALMONELLA TYPHIMURIUM, Strain/Indicator: TA1535, Metabolic Activation: NONE, Method: PREINCUBATION inactive; negative | Test System: AMES SALMONELLA TYPHIMURIUM, Strain/Indicator: TA1535, Metabolic Activation: RAT, LIVER, S-9, AROCLOR 1254 (10% OR 30%), Method: PREINCUBATION inactive; negative | Test System: AMES SALMONELLA TYPHIMURIUM, Strain/Indicator: TA1535, Metabolic Activation: RAT, LIVER, S-9, AROCLOR 1254 (10 OR 30%), Method: PREINCUBATION inactive; negative | Test System: AMES SALMONELLA TYPHIMURIUM, Strain/Indicator: TA1535, Metabolic Activation: RAT, LIVER, S-9, PHENOBARBITAL AND BETA-NAPHTHOFLAVONE, Method: PREINCUBATION inactive; negative | Test System: AMES SALMONELLA TYPHIMURIUM, Strain/Indicator: TA1537, Metabolic Activation: NONE, Method: PREINCUBATION inactive; negative | Test System: AMES SALMONELLA TYPHIMURIUM, Strain/Indicator: TA1537, Metabolic Activation: RAT, LIVER, S-9, PHENOBARBITAL AND BETA-NAPHTHOFLAVONE, Method: PREINCUBATION inactive; negative | Test System: E. COLI, Strain/Indicator: WP2UVRA/PKM101, Metabolic Activation: NONE, Method: PREINCUBATION inactive; negative | Test System: E. COLI, Strain/Indicator: WP2UVRA/PKM101, Metabolic Activation: RAT, LIVER, S-9, PHENOBARBITAL AND BETA-NAPHTHOFLAVONE, Method: PREINCUBATION inactive; negative | Test System: E. COLI, Strain/Indicator: WP2UVRA, Metabolic Activation: NONE, Method: PREINCUBATION inactive; negative | Test System: E. COLI, Strain/Indicator: WP2UVRA, Metabolic Activation: RAT, LIVER, S-9, PHENOBARBITAL AND BETA-NAPHTHOFLAVONE, Method: PREINCUBATION inactive; negative

[Cl][Pd-2]([Cl])([Cl])([Cl])([Cl])[Cl]
inactive: Test System: AMES SALMONELLA TYPHIMURIUM, Strain/Indicator: TA97A, Metabolic Activation: NONE, Method: STANDARD PLATE inactive; negative | Test System: AMES SALMONELLA TYPHIMURIUM, Strain/Indicator: TA97A, Metabolic Activation: RAT, LIVER, S-9, PHENOBARBITAL AND 5,6-BENZOFLAVONE, Method: STANDARD PLATE inactive; negative | Test System: AMES SALMONELLA TYPHIMURIUM, Strain/Indicator: TA97A, Metabolic Activation: RAT, LIVER, S-9, PHENOBARBITAL AND BETA-NAPHTHOFLAVONE, Method: STANDARD PLATE inactive; negative | Test System: AMES SALMONELLA TYPHIMURIUM, Strain/Indicator: TA98, Metabolic Activation: NONE, Method: STANDARD PLATE inactive; negative | Test System: AMES SALMONELLA TYPHIMURIUM, Strain/Indicator: TA98, Metabolic Activation: RAT, LIVER, S-9, PHENOBARBITAL AND 5,6-BENZOFLAVONE, Method: STANDARD PLATE inactive; negative | Test System: AMES SALMONELLA TYPHIMURIUM, Strain/Indicator: TA98, Metabolic Activation: RAT, LIVER, S-9, PHENOBARBITAL AND BETA-NAPHTHOFLAVONE, Method: STANDARD PLATE inactive; negative | Test System: AMES SALMONELLA TYPHIMURIUM, Strain/Indicator: TA100, Metabolic Activation: NONE, Method: STANDARD PLATE inactive; negative | Test System: AMES SALMONELLA TYPHIMURIUM, Strain/Indicator: TA100, Metabolic Activation: RAT, LIVER, S-9, PHENOBARBITAL AND 5,6-BENZOFLAVONE, Method: STANDARD PLATE inactive; negative | Test System: AMES SALMONELLA TYPHIMURIUM, Strain/Indicator: TA100, Metabolic Activation: RAT, LIVER, S-9, PHENOBARBITAL AND BETA-NAPHTHOFLAVONE, Method: STANDARD PLATE inactive; negative | Test System: AMES SALMONELLA TYPHIMURIUM, Strain/Indicator: TA102, Metabolic Activation: NONE, Method: STANDARD PLATE inactive; negative | Test System: AMES SALMONELLA TYPHIMURIUM, Strain/Indicator: TA102, Metabolic Activation: RAT, LIVER, S-9, PHENOBARBITAL AND 5,6-BENZOFLAVONE, Method: STANDARD PLATE inactive; negative | Test System: AMES SALMONELLA TYPHIMURIUM, Strain/Indicator: TA102, Metabolic Activation: RAT, LIVER, S-9, PHENOBARBITAL AND BETA-NAPHTHOFLAVONE, Method: STANDARD PLATE inactive; negative
